{
  "source": "patent US20070208087A1",
  "about": "“Compounds, compositions and methods for the treatment of inflammatory diseases” (priority 2001, published 2007)",
  "format_in_all_cases": "cell-based",
  "key": {"[1]": {"system": "TNF-α release from microglia", "assay": "TNF-α release from LPS/IFNγ stimulated microglia, TNF-α ELISA (Example 11)", "settings": "50 uM compound, TNF-α release, 10 ug LPS and 10 ng IFNγ, 24 hours; for % inhibition: individual replicates, 50 µM; for inhibition at 50 µM: Microglia, 24 h, read-out: Avg % Inhibition", "method": "Also, bis- and tris-dihydroxyaryl compound's ability to inhibit NO release strongly supports their interference with the inflammatory cascade and utlimately inhibition of inflammation. Microglia cells were plated at 1×10^5 cells/ml into 96 well plates. At day three, they were treated with 50 μM bis- and tris-dihydroxyaryl compound for 1 hour and then exposed to 10 μg/ml LPS+10 ng/ml IFNγ for 24 hours. 10 μl of media was removed and stored at −80° until TNF-α ELISA assays were performed. Samples were diluted 1:50 before running the TNF-α ELISA (kit commercially available from Sigma)."}, "[2]": {"system": "EOC 13.31 microglia cells", "assay": "Inhibition of NO release from microglia following 24 hours pretreatment (Example 10)", "settings": "for inhibition at 50 µM: Microglia", "method": "This experiment was designed to determine if pretreatment for 24 hours with bis- and tris-dihydroxyaryl compounds changes NO inhibition previously observed with concurrent exposure of bis- and tris-dihydroxyaryl compounds. […] This study seeks to determine if pretreatment with bis- and tris-dihydroxyaryl compounds increases NO release inhibition. EOC 13.31 microglia cells were plated at 1×10^6 cells/ml in 96 well plates. After 48 hours, confluent cells were exposed to 50 μM compound (stock 10 mM in DMSO) prepared in fresh cell culture media. After 24 hours, 10 μg/ml LPS and 10 ng/ml IFNγ was added to wells directly without a media change. Cells were incubated for a further 48 hours and nitric oxide release was measured using the Griess Reaction."}, "[3]": {"system": "microglia", "assay": "Ranking of NO release inhibition (Example 12)", "settings": "Microglia, ranking table", "source_text": "The bis- and tris-dihydroxyaryl compounds were ranked in order of effectiveness for the inhibition of NO release as set out in Table 8."}, "[4]": {"system": "EOC 13.31 microglial cells", "assay": "NO release inhibition screen in LPS/IFNγ stimulated microglia, Griess reaction at 48 hours (Example 7)", "settings": "50 uM + 10 μg/ml LPS/10 ng/ml IFNγ, 48 hours; for % inhibition: 50 µM; for inhibition at 50 µM: Microglia, 48 h", "method": "In this experiment, additional bis- and tris-dihydroxyaryl compounds were screened for their ability to inhibit nitric oxide release from microglial cells. Microglial cells stimulated with LPS/IFNγ release nitric oxide. […] This is a continuation of screening experiments. EOC 13.31 microglial cells were plated into 96 well plates. At 24 hours and at confluency, cells were treated with 10 μg/ml LPS/10 ng/ml IFNγ+50 uM bis- and tris-dihydroxyaryl compounds."}, "[5]": {"settings": "50 uM pretreatment 24 hours, then LPS/IFNγ 48 hours, single replicates"}, "[6]": {"settings": "50 uM pretreatment 24 hours, then LPS/IFNγ 48 hours, read-out: Avg % Inhibition"}, "[7]": {"settings": "50 uM pretreatment 24 hours, then LPS/IFNγ 48 hours, single replicates, read-out: % inhibition"}, "[8]": {"settings": "50 μM pretreatment, read-out: inhibition of NO release following pretreatment"}},
  "note": "Where “and” joins values, the source holds several entries; their conditions need not be identical. Equal values may be shown once. Read-outs that look alike come from different tables or passages of the source.",
  "data": [
    {"smiles": "Oc1cc2ncc3cnc4cc(O)c(O)cc4c3c2cc1O", "note": "[Compound 85, dibenzo[c,f][2,7]napthyridine-2,3,10,11-tetraol]", "values": [
      {"measurement": "% inhibition", "setting": "[1]", "result": "−14.41% and −19.01% and −16.88%"},
      {"measurement": "inhibition at 50 µM", "setting": "[1]", "result": -16.8, "unit": "%"},
      {"measurement": "% inhibition", "setting": "[2]; [5]", "result": "97.27% and 94.23%"},
      {"measurement": "inhibition at 50 µM", "setting": "[2]; [6]", "result": 94.9, "unit": "%"},
      {"measurement": "inhibition at 50 µM", "setting": "[2]; [7]", "result": 93.3, "unit": "%"},
      {"measurement": "inhibition at 50 µM", "setting": "[2]; [8]", "result": "> 75", "unit": "%"},
      {"measurement": "inhibition at 50 µM", "setting": "[3]", "result": 16, "unit": "%"},
      {"measurement": "μM NO release Avg", "setting": "[4]", "result": 23.445, "unit": "µM"},
      {"measurement": "% inhibition", "setting": "[4]; single replicates", "result": "24.54% and 12.660% and 9.33%"},
      {"measurement": "inhibition at 50 µM", "setting": "[4]; read-out: Avg. % Inhibition", "result": 15.5, "unit": "%"}
    ]},
    {"smiles": "O=C(CCc1ccc(O)c(O)c1)NCc1ccc(O)c(O)c1", "note": "[Compound 58, 3-(3,4-dihydroxyphenyl)propionic acid 3,4-dihydroxybenzylamide]", "values": [
      {"measurement": "% inhibition", "setting": "[1]", "result": "−13.26% and −11.95%"},
      {"measurement": "inhibition at 50 µM", "setting": "[1]", "result": -12.6, "unit": "%"},
      {"measurement": "% inhibition", "setting": "[2]; [5]", "result": "77.86% and 69.95%"},
      {"measurement": "inhibition at 50 µM", "setting": "[2]; [6]", "result": 72.5, "unit": "%"},
      {"measurement": "inhibition at 50 µM", "setting": "[2]; [7]", "result": 69.6, "unit": "%"},
      {"measurement": "inhibition at 50 µM", "setting": "[3]", "result": 4, "unit": "%"},
      {"measurement": "μM NO release Avg", "setting": "[4]", "result": 26.605, "unit": "µM"},
      {"measurement": "% inhibition", "setting": "[4]; single replicates", "result": "9.89% and 2.05% and 0.37%"},
      {"measurement": "inhibition at 50 µM", "setting": "[4]; read-out: Avg. % Inhibition", "result": 4.1, "unit": "%"}
    ]},
    {"smiles": "O=C(Nc1ccc(O)c(O)c1)C(=O)Nc1ccc(O)c(O)c1", "note": "[Compound 63, oxalic acid bis(3,4-dihydroxyanilide)]", "values": [
      {"measurement": "% inhibition", "setting": "[1]", "result": "−11.29% and −7.18% and −9.97%"},
      {"measurement": "inhibition at 50 µM", "setting": "[1]", "result": -9.48, "unit": "%"},
      {"measurement": "% inhibition", "setting": "[2]; [5]", "result": 81.97, "unit": "%"},
      {"measurement": "inhibition at 50 µM", "setting": "[2]; [6]", "result": 82.1, "unit": "%"},
      {"measurement": "inhibition at 50 µM", "setting": "[2]; [7]", "result": 82.3, "unit": "%"},
      {"measurement": "inhibition at 50 µM", "setting": "[2]; [8]", "result": "> 75", "unit": "%"},
      {"measurement": "inhibition at 50 µM", "setting": "[3]", "result": 14, "unit": "%"},
      {"measurement": "μM NO release Avg", "setting": "[4]", "result": 23.193, "unit": "µM"},
      {"measurement": "% inhibition", "setting": "[4]; single replicates", "result": 15.27, "unit": "%"},
      {"measurement": "inhibition at 50 µM", "setting": "[4]; read-out: Avg. % Inhibition", "result": 14.2, "unit": "%"},
      {"measurement": "inhibition at 50 µM", "setting": "[4]; single replicates, read-out: % inhibition", "result": 11.9, "unit": "%"}
    ]}
  ]
}
